System: LXRα and/or LXRβ
Experiment: Co-transfection assay (LXRE luciferase reporter, CV-1 cells)
Type: cell-based, human
Conditions: tested as described in Example 33; IC50 or EC50 for LXRα and/or LXRβ, isoform not specified; read-out: activity (IC50 or EC50 for LXR)
Source text: To measure the ability of compounds to activate or inhibit the transcriptional activity of LXR in a cell based assay, the co-transfection assay was used. It has been shown that LXR functions as a heterodimer with RXR. For the co-transfection assay, expression plasmids for LXR and RXR are introduced via transient transfection into mammalian cells along with a luciferase reporter plasmid that contains one copy of a DNA sequence that is bound by LXR-RXR heterodimers (LXRE; Willy, P. et. al. 1995). Treatment of transfected cells with an LXR agonist increases the transcriptional activity of LXR, which is measured by an increase in luciferase activity.
CV-1 African Green Monkey Kidney Cells Co-transfection expression plasmids, comprising full-length LXRα (pCMX-h LXRα, LXRβ (pCMX-hLXRβ), or RXRα (pCMX-RXR), reporter plasmid (LXREx1-Tk-Luciferase), and control (pCMX-Galactosidase expression vector) (Willey et al. Genes & Development 9 1033-1045 (1995)). Transfection reagent such as FuGENE6 (Roche). 1× Cell lysis buffer (1% Triton X 100 (J T Baker X200-07), 10% Glycerol (J T Baker M778-07), 5 mM Ditriotreitol (Quantum Bioprobe DTT03; add fresh before lysing), 1 mM EGTA (Ethylene Glycol-bis(B-Amino ethyl ether)-N,N,N′,N′-Tetracetic Acid) (Sigma E-4378), 25 mM Tricine (ICN 807420) pH 7.8) 1× Luciferase assay buffer (pH at 7.8) (0.73 mM ATP, 22.3 mM Tricine, 0.11 mM EDTA, 33.3 mM DTT) 1× Luciferrin/CoA (11 mM Luciferin, 3.05 mM Coenzyme A, 10 mM HEPES)
CV-1 cells were prepared 24 hours prior to the experiment by plating them into T-175 flasks or 500 cm^2 dishes in order to achieve 70-80% confluency on the day of the transfection. The number of cells to be transfected was determined by the number of plates to be screened. Each 384 well plate requires 1.92×10^6 cells or 5000 cells per well. DNA Transfection Reagent was prepared by mixing the required plasmid DNAs with a cationic lipid transfection reagent FuGENE6 (Roche) by following the instructions provided with the reagents. Optimal DNA amounts were determined empirically per cell line and size of vessel to be transfected. 10-12 mL of media was added to the DNA Transfection Reagent and this mixture was added to the cells after aspirating media from the T175 cm^2 flask. Cells were then incubated at least 5 hours at 37° C. to prepare screening cells.
Luciferase assay reagent was prepared by combining before use (per 10 mL): 10 mL 1× Luciferase assay buffer; 0.54 mL of 1× Luciferrin/CoA; 0.54 mL of 0.2 M Magnesium sulfate
Assay plates were prepared by dispensing 5 μL, of compound per well of a 384 well plate to achieve final compound concentration of 10 μM and no more than 1% DMSO. Media was removed from the screening cells, the cells trypsinized, harvested cells by centrifugation, counted, and plated at a density of approximately 5000 cells per well in the 384 well assay plate prepared above in a volume of about 45 μL. Assay plates containing both compounds and screening cells (50 μL in total volume) were incubated for 20 hours at 37° C.
After incubation with compounds, media was removed from the cells and lysis buffer (30 μL/well) added. After 30 minutes at ambient temperature, luciferase assay buffer (30 μL/well) was added and the assay plates read on a luminometer (PE Biosystems Northstar reader with on-board injectors, or equivalent). Plates were read immediately after addition of luciferase assay buffer.
The LXR/LNRE co-transfection assay can be used to establish the EC50/IC50 values for potency and percent activity or inhibition for efficacy. Efficacy defines the activity of a compound relative to a high control ((N-(3-((4-fluorophenyl)-(naphthalene-2-sulfonyl)amino)propyl)-2,2-dimethylpropionamide)) or a low control (DMSO/vehicle). The dose response curves are generated from an 8 point curve with concentrations differing by ½ LOG units. Each point represents the average of 4 wells of data from a 384 well plate. […]

Row | Structure (SMILES) | IC50 or EC50 (potency, activation or inhibition) [nM]
1 | Cc1cc(-c2cccc(S(C)(=O)=O)c2)ccc1-n1cc(C(C)(C)O)nc1-c1ccccc1C(F)(F)F [Example 183, 2-(1-(3-methyl-3′-(methyl-sulfonyl)biphenyl-4-yl)-2-(2-(trifluoromethyl)phenyl)-1H-imidazol-4-yl)propan-2-ol] | < 1000
2 | CS(=O)(=O)c1cccc(-c2ccc(-n3cc(C(=O)NCCF)nc3-c3c(Cl)cccc3Cl)cc2)c1 [Example 88, 2-(2,6-dichlorophenyl)-N-(2-fluoroethyl)-1-(3′-(methyl-sulfonyl)biphenyl-4-yl)-1H-imidazole-4-carboxamide] | < 1000
3 | CS(=O)(=O)c1cccc(-c2ccc(-n3cc(C(=O)NCCF)nc3-c3c(Cl)cccc3Cl)c(Cl)c2)c1 [Example 460, 1-(3-chloro-3′-(methyl-sulfonyl)biphenyl-4-yl)-2-(2,6-dichlorophenyl)-N-(2-fluoroethyl)-1H-imidazole-4-carboxamide] | < 1000
4 | Cc1cc(-c2ccc(C(=O)O)cc2Cl)ccc1-n1cc(C(C)(C)O)nc1-c1c(Cl)cccc1Cl [Example 466, 2-chloro-4′-(2-(2,6-dichlorophenyl)-4-(2-hydroxypropan-2-yl)-1H-imidazol-1-yl)-3′-methylbiphenyl-4-carboxylic acid] | > 10000
5 | Cc1cc(-c2ccc(CO)c(S(C)(=O)=O)c2)ccc1-n1cc(C(C)(C)O)nc1-c1c(F)cccc1Cl [Example 172, 2-(2-(2-chloro-6-fluorophenyl)-1-(4′-(hydroxymethyl)-3-methyl-3′-(methylsulfonyl)biphenyl-4-yl)-1H-imidazol-4-yl)propan-2-ol] | < 1000
6 | CC(C)(O)c1cn(Cc2cccc(Cl)c2Cl)c(-c2ccc(-c3cccc(S(C)(=O)=O)c3)cc2)n1 [Example 444, 2-(1-(2,3-dichlorobenzyl)-2-(3′-(methylsulfonyl)biphenyl-4-yl)-1H-imidazol-4-yl)propan-2-ol] | < 1000
7 | CC(C)(O)c1cn(-c2ccc(-c3cccc(S(C)(=O)=O)c3)cc2)c(-c2cccc(C(F)(F)F)c2)n1 [Example 392, 2-{1-[3′-(methylsulfonyl)biphenyl-4-yl]-2-[3-(trifluoromethyl)phenyl]-1H-imidazol-4-yl}propan-2-ol] | < 1000
8 | CC(C)(CO)NC(=O)c1cn(-c2ccc(-c3cccc(S(C)(=O)=O)c3)cc2)c(-c2c(Cl)cccc2Cl)n1 [Example 481, 2-(2,6-dichlorophenyl)-N-(1-hydroxy-2-methylpropan-2-yl)-1-(3′-(methylsulfonyl)biphenyl-4-yl)-1H-imidazole-4-carboxamide] | < 1000
9 | CC(C)(O)c1cn(-c2ccc(-c3cccc(S(C)(=O)=O)c3)c(F)c2)c(-c2ccccc2C(F)(F)F)n1 [Example 111, 2-(1-(2-fluoro-3′-(methyl-sulfonyl)biphenyl-4-yl)-2-(2-(trifluoromethyl)phenyl)-1H-imidazol-4-yl)propan-2-ol] | < 1000
10 | FC(F)(F)c1cn(-c2ccc(Br)cc2)c(-c2ccccc2C(F)(F)F)n1 [Example 363, 1-(4-bromophenyl)-4-(trifluoromethyl)-2-[2-(trifluoromethyl)phenyl]-1H-imidazole] | 1000 to 10000
11 | CC(C)(O)c1cn(-c2ccc(-c3ccc(CO)c(S(C)(=O)=O)c3)cc2F)c(-c2cccc(F)c2Cl)n1 [Example 125, 2-(2-(2-chloro-3-fluorophenyl)-1-(3-fluoro-4′-(hydroxymethyl)-3′-(methylsulfonyl)biphenyl-4-yl)-1H-imidazol-4-yl)propan-2-ol] | < 1000
12 | CC(C)(O)c1cn(-c2ccc(-c3cccc(NC(=O)c4ccc5c(c4)OCO5)c3)cc2)c(-c2ccccc2Cl)n1 [Example 391, N-{4′-[2-(2-chlorophenyl)-4-(1-hydroxy-1-methylethyl)-1H-imidazol-1-yl]biphenyl-3-yl}-1,3-benzodioxole-5-carboxamide] | 1000 to 10000
13 | CCC(O)(CC)c1cn(-c2ccc(-c3cccc(S(C)(=O)=O)c3)cc2)c(-c2cccc(Cl)c2Cl)n1 [Example 72, 3-(2-(2,3-dichlorophenyl)-1-(3′-(methylsulfonyl)biphenyl-4-yl)-1H-imidazol-4-yl)pentan-3-ol] | < 1000
14 | CCC(O)(CC)c1cn(-c2ccc(-c3cccc(S(=O)(=O)CC)c3)cc2)c(Cc2ccccc2Cl)n1 [Example 14] | < 1000
15 | CC(C)(CO)NC(=O)c1cn(-c2ccc(-c3cccc(S(C)(=O)=O)c3)cc2Cl)c(-c2c(Cl)cccc2Cl)n1 [Example 463, 1-(3-chloro-3′-(methylsulfonyl)biphenyl-4-yl)-2-(2,6-dichlorophenyl)-N-(1-hydroxy-2-methylpropan-2-yl)-1H-imidazole-4-carboxamide] | < 1000
16 | CCC(O)(CC)c1cn(-c2ccc(-c3cccc(S(C)(=O)=O)c3)cc2)c(-c2c(Cl)cccc2Cl)n1 [Example 74, 3-(2-(2,6-dichlorophenyl)-1-(3′-(methylsulfonyl)biphenyl-4-yl)-1H-imidazol-4-yl)pentan-3-ol] | < 1000

Next, values leading:

Row | IC50 or EC50 (potency, activation or inhibition) [nM] | Structure (SMILES)
17 | < 1000 | CCS(=O)(=O)c1cccc(-c2ccc(-n3cc(C(C)(C)O)nc3-c3cccc(F)c3Cl)c(Cl)c2)c1 [Example 152, 2-(1-(3-chloro-3′-(ethyl-sulfonyl)biphenyl-4-yl)-2-(2-chloro-3-fluorophenyl)-1H-imidazol-4-yl)propan-2-ol]
18 | < 1000 | CC(C)(O)c1cn(-c2ccc(-c3cccc(S(C)(=O)=O)c3)cc2)c(-c2ccccc2Cl)n1 [Example 379, 2-{2-(2-chlorophenyl)-1-[3′-(methylsulfonyl)biphenyl-4-yl]-1H-imidazol-4-yl}propan-2-ol]
19 | < 1000 | CCS(=O)(=O)c1cccc(-c2ccc(-n3cc(C(C)(C)O)nc3Cc3c(F)cccc3Cl)cc2)c1 [Example 10, 2-(2-(2-chloro-6-fluorobenzyl)-1-(3′-(ethylsulfonyl)biphenyl-4-yl)-1H-imidazol-4-yl)propan-2-ol]
20 | < 1000 | CCS(=O)(=O)c1cccc(-c2ccc(-c3nc(C(C)(C)O)cn3-c3c(Cl)cccc3Cl)c(C)c2)c1 [Example 58, 2-(1-(2,6-dichlorophenyl)-2-(3′-(ethylsulfonyl)-3-methylbiphenyl-4-yl)-1H-imidazol-4-yl)propan-2-ol]
21 | < 1000 | CCS(=O)(=O)c1cccc(-c2ccc(-n3cc(C(C)(C)O)nc3-c3c(C)cccc3Cl)c(C)c2)c1 [Example 192, 2-(2-(2-chloro-6-methylphenyl)-1-(3′-(ethylsulfonyl)-3-methylbiphenyl-4-yl)-1H-imidazol-4-yl)propan-2-ol]
22 | < 1000 | CC(C)(O)c1cn(-c2ccc(-c3cccc(S(C)(=O)=O)c3)cc2F)c(-c2c(Cl)cccc2Cl)n1 [Example 115, 2-(2-(2,6-dichlorophenyl)-1-(3-fluoro-3′-(methylsulfonyl)biphenyl-4-yl)-1H-imidazol-4-yl)propan-2-ol]
23 | < 1000 | Cc1cc(-c2cccc(S(C)(=O)=O)c2)ccc1-c1nc(C(C)(C)O)cn1-c1c(C)cccc1C(C)C [Example 59, 2-(1-(2-isopropyl-6-methylphenyl)-2-(3-methyl-3′-(methylsulfonyl)biphenyl-4-yl)-1H-imidazol-4-yl)propan-2-ol]

Source: patent US9000022B2 (Exelixis Patent Company LLC, priority 2005, dated 2015)
